{"source": "patent US6750028B1", "about": "“Anti-fibrotic agent assay” (Ethicon, Inc, priority 1996, dated 2004)", "key": {"[1]": {"test_system": "TGF-β1 activation", "experiment": "TGF-β1 activation by prostate adenocarcinoma cells (ELISA)", "format": "cell-based, human", "experimental": "(§1) Each measurement was performed in duplicates.\n(§2) It has been shown that cancer cells, such as human breast cancer, some melanoma cell lines and prostate adenocarcinoma cell lines, constitutively release biologically active TGF-β1 into the culture medium (24, 25, 29). Since the homotypic cell culture system would be of advantage due to its simplicity, an attempt was made to implement cancer cells as a method for TGF-β1 activation."}, "[2]": {"test_system": "TGF-β1 activation", "experiment": "Macrophage activation assay (IC-21 macrophages, LPS, fetal fibroblast conditioned media, ELISA)", "format": "cell-based, mouse", "experimental": "(§3) Cultured macrophages were lifted from the dish with 3 ml of PBS. The PBS was balanced with 15 ml of RPMI-1640 containing 10% FBS. The cells were counted and then seeded in 100 mm plates at 1×10^6 cells/dish. When the cultured macrophages reached approximately 70% confluency (2-3 days) they were washed with PBS and RPMI-1640 medium containing 5% FBS and 10 ng/ml LPS was applied (FIG. 1). After 24 h of activation with LPS the cells were washed gently with PBS. At this point conditioned medium from confluent fetal dermal fibroblasts was collected and 5 ml was distributed into each dish containing macrophages. The cells were incubated for an additional 24 h, the media were collected, spun down at 600×g for 10 min and stored at 4° C. before TGF-β1 evaluation by ELISA. Each condition was done in duplicate. The cells, washed with PBS, were harvested for total RNA extraction.\nFetal dermal fibroblasts were seeded in 100 mm dishes at 1×10^6 cell/dish. The cells were grown to confluency (2-3 days). The cultures were washed with PBS and fresh medium, either DMEM supplemented with 10% FBS or AIM-V medium (a serum free medium) for serum-free conditions, was applied for 24 h (FIG. 1). The medium was collected and combined in order to obtain a homogenous pool of latent TGF-β1. The collection of the medium was done just prior to application in the macrophage assay.\nas §1"}, "[3]": {"test_system": "TGF-β1 activation", "experiment": "TGF-β1 activation by Bowes melanoma cells (ELISA)", "format": "cell-based, human", "experimental": "as §1, §2"}, "[4]": {"test_system": "TGF-β1 activation", "experiment": "TGF-β1 activation by HMB-2 melanoma cells (ELISA)", "format": "cell-based, human", "experimental": "as §1, §2"}, "[5]": {"test_system": "TGF-β1 mRNA", "experiment": "mRNA for TGF-β1 in macrophages by Northern blot", "format": "cell-based, mouse", "conditions": "LPS alone or LPS with M6P or DCA, FIG. 2", "experimental": "The cells were washed with PBS, followed by addition of the extraction buffer provided with the kit (RNeasy RNA extraction kit). The lysed cells were scraped from the dish and collected in microtubes. Samples were either frozen at −70° C. before analysis or directly assessed following manufacturer protocol. Absorbance at 260 nm and 280 nm was measured and the integrity of RNA was evaluated by denaturing formaldehyde agarose gels stained with ethidium bromide.\nNorthern blot analysis was carried out as described previously (27). Briefly, total RNA samples (5 μg) were diluted in formaldehyde-MOPS buffer and subjected to electrophoresis in a denaturing 1.2% Sea Kem GTG agarose gel along with the RNA size markers. RNA was transferred to a nitrocellulose membrane by capillary transfer. The blots were prehybridized for 3 h at 42° C. in a solution containing 10% dextran sulfate, 2×Denhardt's solution, 50% formamide, 5×SSPE (0.75 M Sodium chloride, 0.05 M sodium phosphate, 0.005 M ethylenediaminetetraacetic acid)/0.1% SDS, and 250 μg/ml of sheared salmon testis DNA. Hybridization solution was essentially the same except that ^32P dCTP-labeled DNA probe and 150 μg/ml of salmon testis DNA were included. The hybridization was carried out for 16 h at 42° C. […]"}, "[6]": {"test_system": "TGF-β1 activation", "experiment": "BAEC treated with retinoic acid, TGF-β1 in conditioned media by ELISA", "format": "cell-based, bovine", "experimental": "The procedures for preparation of conditioned media were described previously (22). Briefly, for the retinoid experiment, BAEC cells were grown to confluency in 35 mm dishes. The cultures were rinsed with PBS (Phosphate Buffered Saline), and incubated in 1 ml of serum-free DMEM containing 0.1% of BSA and retinoic acid (10 μM) or vehicle (0.5% ethanol). The incubation was carried out for 24 h. The medium was aspirated, the cells were washed with PBS and then incubated in 1 ml of DMEM/0.1% BSA for an additional 12 h to produce conditioned medium. Conditioned media were centrifuged and used in the ELISA assay for TGF-β1 evaluation.\nEach measurement was performed in duplicates. […]"}, "[7]": {"test_system": "M6P/IGF-II receptor mRNA", "experiment": "M6P/IGF-II receptor mRNA in human neonatal fibroblasts by RT-PCR", "format": "cell-based", "conditions": "100 and 200 μM", "experimental": "(§4) Human neonatal fibroblasts were seeded in 100 mm dishes at 1×10^6 cells/dish. […] In addition, cells were treated with two concentrations of Mannose 1-Phosphate (M1P) (100 and 200 μM) for 24 and 48 h. […] Each treatment was run in duplicates and repetitive analyses were performed.\n(§5) The procedure used to transcribe the total RNA was described in detail previously (28). Briefly, the reaction was carried out in a total volume of 25 μl containing 1× reverse transcriptase buffer (50 mM Tris-HCl, pH 8.3, 75 mM KCl, 3 mM MgCl2), 10 mM DTT (Dithiothreitol), 2.5 mM each of dNTPs (Deoxynucleotides), 100 μg/ml of acetylated BSA, 4 units of rRNasin (ribonuclease inhibitor), 200 units of SuperScript™ RNase H^−Reverse Transcriptase, 0.1 μg of oligo (dT)12-18 and 1 μg of total RNA. Incubation was carried out for 1 h at 42° C. and was terminated by the addition of an equal volume of cold water.\n(§6) A portion of the first strand cDNA reaction was used in PCR, which was carried out in 25 μl containing 16 mM Tris-HCl, pH 8.3, 50 mM KCl, 1.5 mM MgCl2, 0.01% gelatin, 200 μM of each dNTPs, 1 μM each sense and antisense oligonucleotides and 2.5 units of AmpliTaq DNA polymerase. Amplification was carried out for 35 cycles. Each cycle consisted of: denaturation 1 min at 95° C.; annealing at 55° C. (optimal for the pair of oligonucleotides used) for 2 min; and elongation at 72° C., 3 min. For the final cycle elongation was 7 min. Reaction products were separated by 2% agarose gel electrophoresis and were visualized by ethidium bromide staining. Sizes were determined using Q X 174 DNA/Hae III markers. Restriction digests were performed in order to confirm PCR product specificity. Densitometry was used for quantitative analysis of the ethidium bromide stained gels."}, "[8]": {"test_system": "TGF-β1 mRNA", "experiment": "TGF-β1 mRNA in human neonatal fibroblasts by RT-PCR", "format": "cell-based", "conditions": "100 and 200 μM", "experimental": "as §4, §5, §6"}, "[9]": {"test_system": "TGF-β1 activation", "experiment": "Activation of rHLTGF-β1 by macrophages", "format": "cell-based, mouse", "conditions": "200 pg/ml rHLTGF-β1", "experimental": "as §3, §1\nThe substitution in the media with purified recombinant latent form of TGF-β1 was tested in an attempt to determine the requirement for fibroblast conditioned media in the macrophage assay. Only 3.3% of rHLTGF-β1 was activated by macrophages when the treatment with LPS was omitted (Table 5)."}, "[10]": {"conditions": "BAEC + RA (10 μM) + test agent 100 μM"}, "[11]": {"conditions": "BAEC + RA (10 μM), conditioned medium"}}}
{"molecule": "NCCSSCCN", "note": "[Cystamine, cystamine]", "values": [{"measurement": "% ACTIVE TGF-β1 (STD)", "setting": "[1]; Adenocarcinoma cells, M6P 100 μM, cystamine 100 μM, antibody 1:1500 dil", "value": 91.1, "unit": "%"}, {"measurement": "active TGF-β1, % Control (STD)", "setting": "[2]; 50 μM M6P + 100 μM putrescine or cystamine", "value": "did not show additive effect"}]}
{"molecule": "CN(C)c1cccc2c(S(=O)(=O)NCCCCCN)cccc12", "note": "[DCA, monodansylcadaverine]", "values": [{"measurement": "% ACTIVE TGF-β1 (STD)", "setting": "[3]; BOWES, M6P 100 μM, DCA 100 μM, antibody 1:1500 dil", "value": 145, "unit": "%"}, {"measurement": "effect on TGF-β1 activation, in words", "setting": "[3]; melanoma cells (Bowes)", "value": "no effect"}, {"measurement": "% ACTIVE TGF-β1 (STD)", "setting": "[4]; HMB-2, M6P 100 μM, DCA 100 μM, antibody 1:1500 dil", "value": 110.7, "unit": "%"}, {"measurement": "effect on TGF-β1 activation, in words", "setting": "[4]; melanoma cells (HMB-2)", "value": "no effect"}, {"measurement": "effect on TGF-β1 activation, in words", "setting": "[1]; prostate cancer cells", "value": "no effect"}, {"measurement": "levels of mRNA for TGF-β1, in words", "setting": "[5]", "value": "remained the same"}]}
{"molecule": "O=P(O)(O)O[C@H]1O[C@H](CO)[C@@H](O)[C@H](O)[C@@H]1O", "note": "[M1P, alpha-D(+)mannose 1-phosphate]", "values": [{"measurement": "inhibitory effect on TGF-β1 activation, in words", "setting": "[6]; 100 μM, BAEC treated with RA", "value": "no significant inhibitory effects"}, {"measurement": "% Active", "setting": "[6]; [10]", "value": 7.6, "unit": "%"}, {"measurement": "Active TGF-β1", "setting": "[6]; [10]", "value": 280, "unit": "pg/mL"}, {"measurement": "Total TGF-β1", "setting": "[6]; [10]", "value": 3686, "unit": "pg/mL"}, {"measurement": "effect on M6P/IGF-II receptor mRNA level, in words", "setting": "[7]", "value": "no effects"}, {"measurement": "effect on TGF-β1 mRNA level, in words", "setting": "[8]", "value": "no effects"}]}
{"molecule": "Cl.Cl.NCCCCN", "note": "[Putrescine, putrescine-dihydrochloride]", "values": [{"measurement": "active TGF-β1, % Control (STD)", "setting": "[2]; 100 μM", "value": 80.6, "unit": "%"}]}
{"molecule": "CC1=C(/C=C/C(C)=C/C=C/C(C)=C/C(=O)O)C(C)(C)CCC1", "note": "[RA, all-trans retinoic acid]", "values": [{"measurement": "% Active", "setting": "[6]; BAEC + RA (10 μM)", "value": 10.3, "unit": "%"}, {"measurement": "Active TGF-β1", "setting": "[6]; [11]", "value": 276, "unit": "pg/mL"}, {"measurement": "Total TGF-β1", "setting": "[6]; [11]", "value": 2667, "unit": "pg/mL"}]}
{"molecule": "IGF-II: Recombinant human IGF-II", "values": [{"measurement": "effect on TGF-β1 activation, in words", "setting": "[2]", "value": "inhibited TGF-β1 activation"}, {"measurement": "active TGF-β1, % Control (STD)", "setting": "[2]; IGF-II 15 nM", "value": 65.1, "unit": "%"}, {"measurement": "active TGF-β1, % Control (STD)", "setting": "[2]; IGF-II 30 nM", "value": 54.3, "unit": "%"}, {"measurement": "effect on TGF-β1 activation, in words", "setting": "[2]; IGF-II 15 and 30 nM", "value": "dose-dependent inhibitory effect"}]}
{"molecule": "rHLTGF-β1: Recombinant human latent TGF-β1", "values": [{"measurement": "% Active", "setting": "[9]; LPS", "value": 12.2, "unit": "%"}, {"measurement": "Active TGF-β1", "setting": "[9]; LPS", "value": "48.8 (3.5) pg/ml"}, {"measurement": "Total TGF-β1", "setting": "[9]; LPS", "value": "399 (44.5) pg/ml"}, {"measurement": "% Active", "setting": "[9]; No LPS", "value": 3.3, "unit": "%"}, {"measurement": "Active TGF-β1", "setting": "[9]; No LPS", "value": "10.9 (7.2) pg/ml"}, {"measurement": "Total TGF-β1", "setting": "[9]; No LPS", "value": "324 (7.2) pg/ml"}]}
